Where a name gives a salt, the structure may show the parent alone. Read-outs that look alike come from different tables or passages of the source.

Consider 19 compounds from patent US20230136562A1, “SPIROUREA DERIVATIVES” (Idorsia Pharmaceuticals Ltd, priority 2020, published 2023).

Assay [1] has as its system primary neuronal cultures from embryonic rat brains. Nature of the assay: Rat oscillation assay (FLIPR, neuronal calcium oscillations). Type of assay: cell-based. The procedure, abridged:
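Cortical neurons from E18 Wistar rat embryos, cultured 8–10 days at high density, loaded with 1 μM Fluo-8 AM; calcium oscillations recorded by FLIPR once per second in Mg-free HBSS with 2 mM CaCl2, 20 mM HEPES, pH 7.4. Two acquisitions ("Acute", 500 sec, compound added at 250 sec; "20 min"), ± Kv7 blocker XE-991.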

A further assay has as its target T1, Kv7.2/7.3 (Homo sapiens, UniProt O43525+O43526).
T1 construct: expressed in transfected cells; host or cells: HEK293
Description: Kv7.2/3 assay (FLIPR potassium assay, agonist mode). Type of assay: cell-based. The settings on record: Kv7.2/7.3 activation; HEK293 cells, human KCNQ2 and KCNQ3. The protocol:
HEK293 cells were stably transfected with the appropriate ion channel cDNA(s) (human KCNQ2 and KCNQ3 genes). Cells were cultured in Dulbecco's Modified Eagle Medium/Nutrient mixture F-12 (D-MEM/F-12) supplemented with 10% fetal bovine serum, 100 U/mL penicillin G sodium, 100 µg/mL streptomycin sulfate and selection antibiotics. FLIPR Test Procedure: For FLIPR assay, cells were plated in 384-well black clear-bottomed microtiter plates (BD Biocoat Poly-D-Lysine Multiwell Cell Culture Plate) at 15'000 to 30'000 cells per well. Cells were incubated at 37° C. overnight or until cells reached sufficient density in the wells (near confluent monolayer) to use in fluorescence assays. […] Assays were performed with the FLIPR potassium assay kit (Molecular Devices) according to the manufacturer's instructions. Dye-loading: Growth media was removed and replaced with 20 μL of dye loading buffer for 60 min at room temperature. FLIPR Recording (agonist mode): Stock solutions of test compounds were prepared at a concentration of 33.3 mM in DMSO. 5 μL of 5× concentrated test, vehicle, or control compounds solutions prepared in the stimulation buffer (K^+-free buffer with 5 mM TI^+) were added to each well and fluorescence recording was continued for 5 min. The agonist effect (EC50 and % effect) of test or control compounds on Kv7 channels was determined as follows: Raw data was exported using Screenworks® 4.2 software and the fluorescence traces were analysed using Microsoft Excel (Microsoft Corp., Redmond, Wash.). The test compounds responses were expressed as % of maximum response of the control compound Flupirtine (Sigma-Aldrich), which was tested at concentrations ranging from 0.03 to 100 μM. Concentration-response data were fitted to a Hill equation. Non-linear least squares fits were made assuming a simple binding model. If appropriate, fits were weighted by the standard deviation. No assumptions about the fit parameters were made; the fit parameters were determined by the algorithm.

The subject of another assay is DBA/2J mice. Nature of the assay: Audiogenic seizure-sensitive mouse model of generalized convulsive seizures (AGS). Type of assay: in vivo. The following applies: challenge 1 h, 90% MC 0.5% + 10% PEG400, read-out: Seizure stage [% vs. vehicle]; for change in vivo at 30 mg/kg: 30 mg/kg po. As to the method: Formulation and Administration.
Compounds were formulated in a 10% polyethylene glycol 400 (PEG 400)/90% aqueous solution of 0.5% methylcellulose (MC 0.5%). Firstly drugs are dissolved in PEG 400 and then suspended in MC 0.5% for oral gavage at X mg/5 mL/kg (X see table).
Audiogenic Seizure-Sensitive Mouse Model of Generalized Convulsive Seizures
1. Procedure: Following two days of acclimatisation, auditory seizures are induced in male juvenile DBA/2J mice (22-24 days old). Each mouse is placed individually in the exposure chamber, an hemispheric acrylic glass dome (diameter: 50 cm) within a sound-attenuated box. The sound-attenuated box is equipped with two house lights and a camera system (Fire-I from Unibrain) in order to observe and record the behavioral seizure response. After 60 seconds of habituation, the stimulus, a mixed frequency tone of 15-20 kHz at 110 dB (SASLab Lite, Avisoft Bioacoustics), is played from a speaker that is placed on the top center of the dome. […] Seizures are classified as following: stage 0, normal behavior; stage 1, wild running; stage 2, generalized clonus; stage 3, tonic extension of the hind limbs.
2. Compounds testing: Acute compound effects on audiogenic generalized convulsive seizures are evaluated in independent groups of 8-10 mice randomly assigned. Following oral administration of compound or vehicle, the maximum seizure stage during sound exposure is assessed. Compounds are given 1 hour before exposure to the stimulus. Each mouse is exposed to the auditory stimulus only once and euthanized afterwards by CO2 inhalation.

The mark [2] stands for this setting: Rattus norvegicus, 20 min, AUC of fluorescence measured 20 min after compound addition, read-out: FLIPR: IC50 [nM] 20 min.
The mark [3] stands for this setting: Rattus norvegicus, Acute phase, ratio of AUC fluorescence before and after compound addition, read-out: FLIPR: IC50 [nM] acute.

`C[C@H](NC(=O)NC1CC2(CCC2)C1)c1cccc(C(F)(F)F)c1` (single isomer, unassigned) [Example 175]: the figures for the IC50 in assay [1] (setting [2]) and in assay [1] (setting [3]) were 5.5 nM and 9 nM, respectively. This compound came in with a half-maximal effective concentration (EC50) at Kv7.2/7.3 of 30 nM.
In the case of `O=C(NCc1ccnc(OCC(F)(F)F)c1)NC1CC2(C1)CC(F)(F)C2` [Example 160, 1-(6,6-Difluoro-spiro[3.3]hept-2-yl)-3-[2-(2,2,2-trifluoro-ethoxy)-pyridin-4-ylmethyl]-urea], the IC50 in assay [1] (setting [2]) was determined as 253 nM; in assay [1] (setting [3]), 83 nM. Besides, the change in vivo at 30 mg/kg with DBA/2J mice is -100%.
For `C[C@H](NC(=O)NC1CC2(CCC2)C1)c1ccc(F)c(OCC(F)(F)F)c1` (single isomer, unassigned) [Example 177], the concentration for half-maximal inhibition (IC50) turned out to be 24 nM in assay [1] (setting [2]) and 22 nM in assay [1] (setting [3]). This compound also displayed an EC50 on Kv7.2/7.3 of 7 nM.
For `O=C(NCc1cccc(C(F)(F)F)c1)NC1CC2(CCC2)C1` [Example 1, 1-Spiro[3.3]hept-2-yl-3-(3-trifluoromethyl-benzyl)-urea], in that order: 20 nM, 27 nM and 30 nM.
Take `CC(NC(=O)NC1CC2(CCC2)C1)c1ccnc(OC(F)F)c1` (racemic) [Example 100 (HCl salt), (±)-1-[1-(2-Difluoromethoxy-pyridin-4-yl)-ethyl]-3-spiro[3.3]hept-2-yl-urea]: in the assay with DBA/2J mice (33 mg/kg po), the change in vivo at 33 mg/kg was -71%.
In the case of `O=C(NCc1cccc(OC(F)F)c1)NC1CC2(CC2)C1` [Example 155, 1-(3-Difluoromethoxy-benzyl)-3-spiro[2.3]hex-5-yl-urea], the figures for the IC50 in assay [1] (setting [2]) and in assay [1] (setting [3]) were 163 nM and 151 nM, respectively. Besides, in the assay with DBA/2J mice, the change in vivo at 30 mg/kg was -100%.
Regarding `COCC(Oc1cc(CNC(=O)NC2CC3(CCC3)C2)ccn1)C(F)(F)F` (single isomer, unassigned) [Example 172, 1-Spiro[3.3]hept-2-yl-3-[2-(2,2,2-trifluoro-1-methoxymethyl-ethoxy)-pyridin-4-ylmethyl]-urea], the IC50 in assay [1] (AUC of fluorescence measured 20 min after compound addition, read-out: FLIPR: IC50 [nM] 20 min) worked out at 37 nM; in assay [1] (Acute phase, ratio of AUC fluorescence before and after compound addition, read-out: FLIPR: IC50 [nM] acute), 38 nM. The change in vivo at 30 mg/kg with DBA/2J mice was -81%.
Turning to `O=C(NCc1ccnc(OCC(F)(F)F)c1)NC1CC2(CC2)C1` [Example 159, 1-Spiro[2.3]hex-5-yl-3-[2-(2,2,2-trifluoro-ethoxy)-pyridin-4-ylmethyl]-urea], the IC50 was 47 nM in assay [1] (setting [2]) and 26 nM in assay [1] (setting [3]). Moreover, the change in vivo at 30 mg/kg in the assay on DBA/2J mice was -100%.
In the case of `O=C(NCc1ccnc(OCC(F)(F)F)c1)NC1CC2(CCC2)C1` [Example 103, 1-Spiro[3.3]hept-2-yl-3-[2-(2,2,2-trifluoro-ethoxy)-pyridin-4-ylmethyl]-urea], the IC50 worked out at 7.4 nM in assay [1] (setting [2]) and 4.8 nM in assay [1] (setting [3]). Also, the EC50 at Kv7.2/7.3 was 1.5 nM.
In the case of `C[C@H](NC(=O)NC1CC2(CCC2)C1)c1cc(OCC(F)(F)F)ncn1` (single isomer, unassigned) [Example 182], the 50% inhibitory concentration (IC50) in assay [1] (setting [2]) came out at 13 nM; in assay [1] (setting [3]), 11 nM. In the assay on DBA/2J mice (5 mg/kg po), the change in vivo at 5 mg/kg is -100%.
For the compound `CC(Oc1ccnc(CNC(=O)NC2CC3(CCC3)C2)c1)C(F)(F)F` (racemic) [Example 117, (±)-1-Spiro[3.3]hept-2-yl-3-[4-(2,2,2-trifluoro-1-methyl-ethoxy)-pyridin-2-ylmethyl]-urea], the results for the half-inhibitory concentration (IC50) in assay [1] (setting [2]) and in assay [1] (setting [3]) were 286 nM and 195 nM, respectively.
Turning to `O=C(NCc1cccc(C2(C(F)(F)F)CC2)c1)NC1CC2(CCC2)C1` [Example 37, 1-Spiro[3.3]hept-2-yl-3-[3-(1-trifluoromethyl-cyclopropyl)-benzyl]-urea], the 50% inhibitory concentration (IC50) in assay [1] (setting [2]) turned out to be 8.1 nM; in assay [1] (setting [3]) it was 10 nM. Moreover, the half-maximal effective concentration (EC50) at Kv7.2/7.3 is 1.5 nM.
Consider `O=C(NC1CC2(CCC2)C1)NC(CO)c1cc(OCC(F)(F)F)ncn1` (racemic) [Example 83, (±)-1-{2-Hydroxy-1-[6-(2,2,2-trifluoro-ethoxy)-pyrimidin-4-yl]-ethyl}-3-spiro[3.3]hept-2-yl-urea], for which the IC50 in assay [1] (setting [2]) turned out to be 100 nM; in assay [1] (setting [3]), 93 nM.
On to `O=C(NC1CC2(CC2)C1)NC(CCO)c1cccc(OC(F)(F)F)c1` (racemic) [Example 138, (±)-1-[3-Hydroxy-1-(3-trifluoromethoxy-phenyl)-propyl]-3-spiro[2.3]hex-5-yl-urea], for which the IC50 in assay [1] (setting [2]) amounted to 92 nM; in assay [1] (setting [3]) it was 60 nM.
In the case of `Cc1nc(CNC(=O)NC2CC3(CCC3)C2)cc(OCC(F)(F)F)n1` [Example 60, 1-[2-Methyl-6-(2,2,2-trifluoro-ethoxy)-pyrimidin-4-ylmethyl]-3-spiro[3.3]hept-2-yl-urea], the 50% inhibitory concentration (IC50) turned out to be 144 nM in assay [1] (setting [2]) and 109 nM in assay [1] (setting [3]). At Kv7.2/7.3, this compound had an EC50 of 42 nM.
In the case of `CC(NC(=O)NC1CC2(CC2)C1)c1cccc(OC(F)F)c1` (racemic) [Example 124, (±)-1-[1-(3-Difluoromethoxy-phenyl)-ethyl]-3-spiro[2.3]hex-5-yl-urea], the IC50 in assay [1] (setting [2]) was 280 nM; in assay [1] (setting [3]), 69 nM.
On to `O=C(NCc1ccnc(NCC(F)(F)F)c1)NC1CC2(CCC2)C1` [Example 116, 1-Spiro[3.3]hept-2-yl-3-[2-(2,2,2-trifluoro-ethylamino)-pyridin-4-ylmethyl]-urea], for which the values for the IC50 in assay [1] (setting [2]) and in assay [1] (setting [3]) were 609 nM and 530 nM, respectively. At Kv7.2/7.3, this compound showed an EC50 of 161 nM.
For `COCC(c1ccnc(OCC(F)(F)F)c1)N(C)C(=O)NC1CC2(CCC2)C1` (racemic) [Example 50, (±)-1-{2-Methoxy-1-[2-(2,2,2-trifluoro-ethoxy)-pyridin-4-yl]-ethyl}-1-methyl-3-spiro[3.3]hept-2-yl-urea], the IC50 in assay [1] (setting [2]) worked out at 118 nM; in assay [1] (setting [3]) it was 80 nM.
For `O=C(NCc1ccnc(OC(F)(F)F)c1)NC1CC2(CC2)C1` [Example 153, 1-Spiro[2.3]hex-5-yl-3-(2-trifluoromethoxy-pyridin-4-ylmethyl)-urea], in that order: 601 nM and 336 nM.
